In ChEMBL document CHEMBL4177638, “Challenges in the development of an M4 PAM preclinical candidate: The discovery, SAR, and biological characterization of a series of azetidine-derived tertiary amides” (Bioorg Med Chem Lett, 2017):
The source made the active and inactive calls. No cut-off for these calls is given here.

Legend:
[1] = target: T1, Muscarinic acetylcholine receptor M4 (Homo sapiens, UniProt P08173); test: Positive allosteric modulation of human M4 receptor expressed in CHO cells co-expressing Gqi5 assessed as increase in acetylcholine-induced calcium mobilization; type: functional, cell-based
T1 sequence (P08173 whole entry): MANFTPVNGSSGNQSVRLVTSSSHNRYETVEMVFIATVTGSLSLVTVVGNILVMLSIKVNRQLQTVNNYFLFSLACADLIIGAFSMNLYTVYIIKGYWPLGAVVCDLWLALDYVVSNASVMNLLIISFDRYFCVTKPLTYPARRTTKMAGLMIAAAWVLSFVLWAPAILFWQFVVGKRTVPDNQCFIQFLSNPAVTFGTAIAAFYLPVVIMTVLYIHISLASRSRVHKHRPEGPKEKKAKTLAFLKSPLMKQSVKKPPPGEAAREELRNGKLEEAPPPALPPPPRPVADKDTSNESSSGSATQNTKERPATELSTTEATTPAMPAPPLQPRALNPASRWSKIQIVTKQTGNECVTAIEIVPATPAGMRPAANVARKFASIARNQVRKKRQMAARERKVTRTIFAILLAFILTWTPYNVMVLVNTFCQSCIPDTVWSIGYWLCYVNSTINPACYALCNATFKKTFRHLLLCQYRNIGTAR

[2] = target: T2, Muscarinic acetylcholine receptor M4 (Homo sapiens) (UniProt P08173); test: Positive allosteric modulation of human M4 receptor expressed in CHO cells co-expressing Gqi5 assessed as increase in acetylcholine-induced calcium mobilization relative to acetylcholine; type: functional, cell-based
T2 sequence (whole entry): T1 sequence (P08173 whole entry)

[3] = Brain to plasma partition coefficient, Kp of the compound in rat; type: ADME, cell-free
[4] = Ratio of unbound brain to plasma concentration in rat; type: ADME, cell-free
[5] = target: T3, Muscarinic acetylcholine receptor M2 (Homo sapiens, UniProt P08172); test: (§1) Positive allosteric modulation of human M2 receptor assessed as increase in acetylcholine-induced response; type: functional
T3 sequence (P08172 whole entry): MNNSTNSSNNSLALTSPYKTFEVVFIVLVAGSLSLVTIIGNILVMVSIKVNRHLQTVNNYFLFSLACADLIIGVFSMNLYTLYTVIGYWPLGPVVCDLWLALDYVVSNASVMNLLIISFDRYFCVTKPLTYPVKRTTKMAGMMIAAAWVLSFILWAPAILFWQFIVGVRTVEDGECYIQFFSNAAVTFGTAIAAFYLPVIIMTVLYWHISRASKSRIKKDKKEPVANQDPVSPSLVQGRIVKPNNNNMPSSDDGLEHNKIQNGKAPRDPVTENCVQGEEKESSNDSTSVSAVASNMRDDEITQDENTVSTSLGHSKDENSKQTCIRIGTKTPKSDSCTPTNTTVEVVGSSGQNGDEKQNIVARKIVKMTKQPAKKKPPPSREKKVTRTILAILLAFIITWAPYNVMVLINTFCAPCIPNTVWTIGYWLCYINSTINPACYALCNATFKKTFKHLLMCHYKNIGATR

[6] = target: T4, Muscarinic acetylcholine receptor M2 (Homo sapiens) (UniProt P08172); test: Positive allosteric modulation of human M2 receptor assessed as increase in acetylcholine-induced response relative to acetylcholine; type: functional
T4 sequence (whole entry): T3 sequence (P08172 whole entry)

[7] = Clearance in Sprague-Dawley rat plasma at 0.1 to 1 mg/kg, iv; type: ADME, organism-based
[8] = Elimination half life in Sprague-Dawley rat at 0.1 to 1 mg/kg, iv; type: ADME, organism-based; conditions: in vivo, read-out: beta t1/2 (converted)
[9] = Brain to plasma partition coefficient, Kp of the compound in Sprague-Dawley rat at 0.1 to 0.2 mg/kg, iv measured after 0.25 hrs; type: ADME, organism-based
[10] = Ratio of unbound brain to plasma concentration in Sprague-Dawley rat at 0.1 to 0.2 mg/kg, iv measured after 0.25 hrs; type: ADME, organism-based; conditions: read-out: K(p,uu,brain)
[11] = Aqueous solubility of the compound at pH 7.4; type: physicochemical; conditions: aqueous medium
[12] = target: T4, Muscarinic acetylcholine receptor M2 (Homo sapiens); test: as §1; type: functional
[13] = Oral bioavailability in dog at 10 mg/kg; type: ADME, organism-based, Canis lupus familiaris; conditions: in vivo
Rattus norvegicus = test: Antipsychotic activity in rat assessed as reversal of amphetamine-induced hyperlocomotion at 30 mg/kg, po; type: functional
[14] = Ratio of EC50 for rat M4 receptor to EC50 for human M4 receptor expressed in CHO cells co-expressing Gqi5; type: cell-based
[15] = target: T5, Muscarinic acetylcholine receptor M1 (Homo sapiens, UniProt P11229); test: Positive allosteric modulation of human M1 receptor assessed as increase in acetylcholine-induced response; type: functional
T5 sequence (P11229 whole entry): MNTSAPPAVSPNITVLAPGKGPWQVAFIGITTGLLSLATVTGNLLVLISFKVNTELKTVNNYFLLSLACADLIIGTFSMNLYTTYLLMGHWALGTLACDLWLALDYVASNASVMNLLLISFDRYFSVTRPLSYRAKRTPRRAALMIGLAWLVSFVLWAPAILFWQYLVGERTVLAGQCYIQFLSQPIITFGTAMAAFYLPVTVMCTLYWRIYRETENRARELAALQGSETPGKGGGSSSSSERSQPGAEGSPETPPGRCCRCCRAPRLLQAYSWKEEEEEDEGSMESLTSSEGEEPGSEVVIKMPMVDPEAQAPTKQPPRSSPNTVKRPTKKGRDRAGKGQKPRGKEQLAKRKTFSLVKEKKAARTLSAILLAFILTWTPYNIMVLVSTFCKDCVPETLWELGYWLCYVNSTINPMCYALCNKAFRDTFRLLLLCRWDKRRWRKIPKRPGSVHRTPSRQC

[16] = target: Muscarinic acetylcholine receptor M3 (Homo sapiens, UniProt P20309); test: Positive allosteric modulation of human M3 receptor assessed as increase in acetylcholine-induced response; type: functional
[17] = target: T6, Muscarinic acetylcholine receptor M5 (Homo sapiens, UniProt P08912); test: Positive allosteric modulation of human M5 receptor assessed as increase in acetylcholine-induced response; type: functional
T6 sequence (P08912 whole entry): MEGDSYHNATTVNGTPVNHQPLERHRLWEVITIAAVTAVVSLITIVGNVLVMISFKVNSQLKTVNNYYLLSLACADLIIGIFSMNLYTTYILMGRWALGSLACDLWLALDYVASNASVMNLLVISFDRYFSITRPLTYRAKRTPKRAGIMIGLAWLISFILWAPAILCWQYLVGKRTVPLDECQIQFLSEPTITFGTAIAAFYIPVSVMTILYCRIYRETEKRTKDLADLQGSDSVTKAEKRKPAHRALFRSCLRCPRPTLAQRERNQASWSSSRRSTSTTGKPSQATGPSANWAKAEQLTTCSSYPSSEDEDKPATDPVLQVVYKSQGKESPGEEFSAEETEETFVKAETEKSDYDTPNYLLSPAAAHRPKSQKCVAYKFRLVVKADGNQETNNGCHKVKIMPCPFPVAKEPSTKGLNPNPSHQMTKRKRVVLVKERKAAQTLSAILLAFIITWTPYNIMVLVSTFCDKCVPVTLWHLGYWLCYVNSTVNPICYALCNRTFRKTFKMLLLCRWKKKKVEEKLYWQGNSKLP

Chain of Muscarinic acetylcholine receptor M3 (P20309 whole entry): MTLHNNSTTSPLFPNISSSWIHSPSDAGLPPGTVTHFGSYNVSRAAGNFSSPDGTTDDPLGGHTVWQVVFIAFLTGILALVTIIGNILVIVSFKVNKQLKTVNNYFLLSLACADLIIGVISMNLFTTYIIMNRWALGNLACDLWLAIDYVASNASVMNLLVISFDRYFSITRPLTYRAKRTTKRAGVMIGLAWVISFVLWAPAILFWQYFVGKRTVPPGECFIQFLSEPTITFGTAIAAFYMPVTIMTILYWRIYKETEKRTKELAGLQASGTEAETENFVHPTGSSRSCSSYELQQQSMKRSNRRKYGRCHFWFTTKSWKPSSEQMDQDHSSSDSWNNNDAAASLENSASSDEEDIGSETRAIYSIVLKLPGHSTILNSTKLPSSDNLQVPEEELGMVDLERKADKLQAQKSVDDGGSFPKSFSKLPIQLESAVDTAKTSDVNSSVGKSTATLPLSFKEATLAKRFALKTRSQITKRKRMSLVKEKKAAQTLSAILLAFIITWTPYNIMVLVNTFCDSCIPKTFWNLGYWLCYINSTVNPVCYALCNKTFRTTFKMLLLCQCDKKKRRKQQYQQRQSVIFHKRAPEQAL

Compound	EC50 [1] [nM]	%max [2] [%]	other results
Cc1nnc2sc(C(=O)N3CC(c4ccc(Br)cc4)C3)c(N)c2c1C	> 10000	–	–
Cc1ccc(C2CN(C(=O)c3sc4nnc(C)c(C)c4c3N)C2)cc1	1100	82	–
COc1ccccc1C1CN(C(=O)c2sc3nnc(C)c(C)c3c2N)C1	2290	54	–
Cc1nnc2sc(C(=O)NCc3ccc(S(=O)(=O)C(F)(F)F)cc3)c(N)c2c1C	–	–	clearance [7]: 1.6 mL/min/kg; half-life [8]: 2.7 h; Kp at 0.25 h [9]: 0.11; Kp uu at 0.25 h [10]: 1.2; solubility [11]: < 0.5 µM
Cc1nnc2sc(C(=O)NCc3ccc(S(=O)(=O)C(F)(F)F)cc3)c(N)c2c1C.Cl	–	–	bioavailability [13]: 4.7%
Cc1nnc2sc(C(=O)N3CC(F)(c4ccccn4)C3)c(N)c2c1C	2240	78	–
Cc1nnc2sc(C(=O)N3CC(c4cccc(F)c4)C3C)c(N)c2c1C (stereo not given)	1460	45	–
Cc1nnc2sc(C(=O)N3CC(c4ccc(Cl)cc4)C3)c(N)c2c1C	> 10000	–	–
COc1cccc(C2CN(C(=O)c3sc4nnc(C)c(C)c4c3N)C2)c1	> 10000	–	–
Cc1nnc2sc(C(=O)N3CC(c4ccccc4)C3C)c(N)c2c1C (stereo not given)	1510	45	–
Cc1nnc2sc(C(=O)N3CC4(CCN(c5cccnc5)C4)C3)c(N)c2c1C	–	53 to 57	–
Cc1nnc2sc(C(=O)N3CC(O)(c4ccccc4)C3)c(N)c2c1C	1050	30	–

Now from value to compound, other results behind:

EC50 [1] [nM]	%max [2] [%]	Compound	other results
407	75	Cc1nnc2sc(C(=O)N3CC(c4ccccc4F)C3)c(N)c2c1C	–
457	72	Cc1ccccc1C1CN(C(=O)c2sc3nnc(C)c(C)c3c2N)C1	–
363	98	Cc1nnc2sc(C(=O)N3CC(C)(F)C3)c(N)c2c1C	–
417	36	COC1(c2cccc(F)c2)CN(C(=O)c2sc3nnc(C)c(C)c3c2N)C1	–
57	83	Cc1nnc2sc(C(=O)N3CC(c4cccc(F)c4)C3)c(N)c2c1C	Kp [3]: 2.1; K(p,uu,brain) [4]: 0.92; EC50 [5]: 2100 nM; %max [6]: 38%
151	80	Cc1nnc2sc(C(=O)N3CC(c4ccc(F)cc4)C3)c(N)c2c1C	Kp [3]: 2.3; K(p,uu,brain) [4]: 1.3; Activity [12]: inactive
447	67	Cc1nnc2sc(C(=O)N3CC(F)(c4cccc(F)c4)C3)c(N)c2c1C	–
200	78	Cc1nnc2sc(C(=O)N3CC(c4cccs4)C3)c(N)c2c1C	–
72	65	Cc1nnc2sc(C(=O)N3CC(c4ccccc4)C3)c(N)c2c1C	Activity (Rattus norvegicus): 32%; Kp [3]: 2.6; Ratio EC50 [14]: 2; K(p,uu,brain) [4]: 2.1; EC50 [15]: > 10000 nM; EC50 [5]: > 10000 nM; EC50 [16]: > 10000 nM; EC50 [17]: > 10000 nM
178	54	Cc1nnc2sc(C(=O)N3CC(C4CCCCC4)C3)c(N)c2c1C	Kp [3]: 8.46; K(p,uu,brain) [4]: 0.71
316	85	CCCCC1(F)CN(C(=O)c2sc3nnc(C)c(C)c3c2N)C1	–
331	94	COc1ccc(C2CN(C(=O)c3sc4nnc(C)c(C)c4c3N)C2)cc1	–
851	83	Cc1cccc(C2CN(C(=O)c3sc4nnc(C)c(C)c4c3N)C2)c1	–
